# pEC50: −log10 of the molar value.
# Target: E. coli PBP3 (Escherichia coli (strain K12), UniProt P0AD68)
# Experiment: E. coli PBP3 Bocillin-FL fluorescence polarization competition binding assay
# Settings: not given
# Excerpt: To determine the ability of boronic acid-based test PBP inhibitors to bind Penicillin Binding Proteins (PBPs), Bocillin-FL (fluorescently-labeled penicillin V; ThermoFisher Scientific) was used in a fluorescence polarization (FP) competition binding assay to assess inhibitor binding to PBP2, PBP3 or PBP4 from Escherichia coli. PBPs were cloned and purified as described previously (King, D. T, et al., ACS Infectious Diseases 2015, 1, 175-184). To establish assay conditions for competition binding, an enzyme titration/saturation binding experiment was initially performed. Bocillin-FL was prepared at 0.2 μM in a buffer comprised of 50 mM Hepes (pH 8.0), 300 mM NaCl and 5% (v/v) glycerol. Saturation binding was performed by mixing 40 μl of PBP solutions ranging in concentrations from 0-12 μM with 40 μl of the 0.2 μM Bocillin-FL solution, in individual wells of a black 384-well microplate. FP was measured immediately upon mixing (Excitation, 490 nm; Emission, 520 nm; g-factor, 0.96), using a Cytation3 (BioTek) microplate reader and measured continuously for up to 120 minutes. […] Assays (80 μl final volume) were performed with PBPs at a final concentration of 1.5 μM, Bocillin-FL at 0.1 μM and beta-lactam concentrations that ranged from 0-1000 μM. […] Bocillin-FL was added and the FP immediately measured for 60 minutes (90 minutes for PBP2). The beta-lactam potency was reported as the concentration of beta-lactam required to reduce binding of Bocillin-FL by […] (EC50). […] Binding assays for boronic acid PBP inhibitors were performed in an identical fashion.
# Sequence of E. coli PBP3 (P0AD68 whole entry): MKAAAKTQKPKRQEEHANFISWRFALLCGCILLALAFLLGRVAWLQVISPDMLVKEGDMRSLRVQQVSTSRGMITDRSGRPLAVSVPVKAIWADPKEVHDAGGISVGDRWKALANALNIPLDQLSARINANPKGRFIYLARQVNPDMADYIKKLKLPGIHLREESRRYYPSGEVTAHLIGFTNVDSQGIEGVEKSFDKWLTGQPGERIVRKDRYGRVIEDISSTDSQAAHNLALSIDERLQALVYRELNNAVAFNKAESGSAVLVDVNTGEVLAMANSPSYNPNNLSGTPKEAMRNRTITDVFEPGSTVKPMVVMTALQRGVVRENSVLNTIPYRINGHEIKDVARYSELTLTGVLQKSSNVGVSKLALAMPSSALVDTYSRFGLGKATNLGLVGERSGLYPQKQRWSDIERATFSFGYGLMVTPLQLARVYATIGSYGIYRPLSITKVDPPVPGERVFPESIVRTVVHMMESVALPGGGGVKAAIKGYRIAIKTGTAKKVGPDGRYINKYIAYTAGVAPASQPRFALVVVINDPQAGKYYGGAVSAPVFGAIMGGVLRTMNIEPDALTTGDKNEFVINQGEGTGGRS
row,Structure (SMILES),pEC50
1,"CCN1CCN(C(=O)N[C@@H](C(=O)N[C@H]2Cc3cccc(C(=O)O)c3OB2O)[C@H](C)OC)C(=O)C1=O [Example 146, (R)-3-((2R,3S)-2-(4-ethyl-2,3-dioxopiperazine-1-carboxamido)-3-methoxybutanamido)-2-hydroxy-3,4-dihydro-2H-benzo[e][1,2]oxaborinine-8-carboxylic acid]",3.30 to 4.52
2,"CCN1CCN(C(=O)N[C@H](C(=O)N[C@H]2Cc3ccc(F)c(C(=O)O)c3OB2O)c2ccsc2)C(=O)C1=O [Example 139, (R)-3-((S)-2-(4-ethyl-2,3-dioxopiperazine-1-carboxamido)-2-(thiophen-3-yl)acetamido)-7-fluoro-2-hydroxy-3,4-dihydro-2H-benzo[e][1,2]oxaborinine-8-carboxylic acid]",3.30 to 4.52
3,"CCN1CCN(C(=O)NC(C(=O)N[C@H]2Cc3cccc(C(=O)O)c3OB2O)c2cccc(OC)n2)C(=O)C1=O (stereo partly drawn) [Example 120, (3R)-3-(2-(4-ethyl-2,3-dioxopiperazine-1-carboxamido)-2-(6-methoxypyridin-2-yl)acetamido)-2-hydroxy-3,4-dihydro-2H-benzo[e][1,2]oxaborinine-8-carboxylic acid]",3.30 to 4.52
4,"CCN1CCN(C(=O)NC(CC(=O)N[C@H]2Cc3cccc(C(=O)O)c3OB2O)c2cc(O)c(O)c(Br)c2)C(=O)C1=O (stereo partly drawn) [Example 42, (3R)-3-(3-(3-bromo-4,5-dihydroxyphenyl)-3-(4-ethyl-2,3-dioxopiperazine-1-carboxamido)propanamido)-2-hydroxy-3,4-dihydro-2H-benzo[e][1,2]oxaborinine-8-carboxylic acid]",3.30 to 4.52
5,"CCN1CCN(C(=O)NC(C(=O)N[C@H]2Cc3cccc(C(=O)O)c3OB2O)c2csc(N)n2)C(O)C1=O (stereo partly drawn) [Example 193, (3R)-3-(2-(2-aminothiazol-4-yl)-2-(4-ethyl-2-hydroxy-3-oxopiperazine-1-carboxamido)acetamido)-2-hydroxy-3,4-dihydro-2H-benzo[e][1,2]oxaborinine-8-carboxylic acid]",3.30 to 4.52
6,"CCN1CCN(C(=O)NC(C(=O)N[C@H]2Cc3c(F)cc(F)c(C(=O)O)c3OB2O)c2csc(N)n2)C(=O)C1=O (stereo partly drawn) [Example 184, (3R)-3-(2-(2-aminothiazol-4-yl)-2-(4-ethyl-2,3-dioxopiperazine-1-carboxamido)acetamido)-5,7-difluoro-2-hydroxy-3,4-dihydro-2H-benzo[e][1,2]oxaborinine-8-carboxylic acid]",3.30 to 4.52
7,"CCN1CCN(C(=O)NC(C(=O)N[C@H]2Cc3cccc(C(=O)O)c3OB2O)[C@H](O)C(F)(F)F)C(=O)C1=O (mixture of isomers) [Example 157, (3R)-3-((3S)-2-(4-ethyl-2,3-dioxopiperazine-1-carboxamido)-4,4,4-trifluoro-3-hydroxybutanamido)-2-hydroxy-3,4-dihydro-2H-benzo[e][1,2]oxaborinine-8-carboxylic acid]",< 3.30
8,"CCN1CCN(C(=O)NC(C(=O)N[C@H]2Cc3cc(F)c(F)c(C(=O)O)c3OB2O)c2csc(N)n2)C(=O)C1=O (stereo partly drawn) [Example 175, (3R)-3-(2-(2-aminothiazol-4-yl)-2-(4-ethyl-2,3-dioxopiperazine-1-carboxamido)acetamido)-6,7-difluoro-2-hydroxy-3,4-dihydro-2H-benzo[e][1,2]oxaborinine-8-carboxylic acid]",3.30 to 4.52
9,"CCN1CCN(C(=O)N[C@@H](C(=O)N[C@H]2Cc3ccc(F)c(C(=O)O)c3OB2O)[C@H](O)C(F)(F)F)C(=O)C1=O [Example 158, (R)-3-((2R,3S)-2-(4-ethyl-2,3-dioxopiperazine-1-carboxamido)-4,4,4-trifluoro-3-hydroxybutanamido)-7-fluoro-2-hydroxy-3,4-dihydro-2H-benzo[e][1,2]oxaborinine-8-carboxylic acid]",3.30 to 4.52
10,"CCN1CCN(C(=O)NC(C(=O)N[C@H]2Cc3ccc(F)c(C(=O)O)c3OB2O)c2cscn2)C(=O)C1=O (stereo partly drawn) [Example 165, (3R)-3-(2-(4-ethyl-2,3-dioxopiperazine-1-carboxamido)-2-(thiazol-4-yl)acetamido)-7-fluoro-2-hydroxy-3,4-dihydro-2H-benzo[e][1,2]oxaborinine-8-carboxylic acid]",3.30 to 4.52
11,"CCN1CCN(C(=O)NC(C(=O)N[C@H]2Cc3cccc(C(=O)O)c3OB2O)C2CCCO2)C(=O)C1=O (stereo partly drawn) [Example 122, (3R)-3-(2-(4-ethyl-2,3-dioxopiperazine-1-carboxamido)-2-(tetrahydrofuran-2-yl)acetamido)-2-hydroxy-3,4-dihydro-2H-benzo[e][1,2]oxaborinine-8-carboxylic acid]",3.30 to 4.52
12,"CCN1CCN(C(=O)NC(C(=O)N[C@H]2Cc3cccc(C(=O)O)c3OB2O)c2ccc(O)c(OCCNC(=O)OCc3ccccc3)c2)C(=O)C1=O (stereo partly drawn) [Example 50, (3R)-3-(2-(3-(2-(((benzyloxy)carbonyl)amino)ethoxy)-4-hydroxyphenyl)-2-(4-ethyl-2,3-dioxopiperazine-1-carboxamido)acetamido)-2-hydroxy-3,4-dihydro-2H-benzo[e][1,2]oxaborinine-8-carboxylic acid]",3.30 to 4.52

# Same assay, conditions: fluorescence polarization competition binding with Bocillin-FL; read-out: E. coli K12 PBP3 Potency
row,Structure (SMILES),pEC50
1,"CCN1CCN(C(=O)N[C@@H](C(=O)N[C@H]2Cc3ccc(F)c(C(=O)O)c3OB2O)[C@H](O)C(F)F)C(=O)C1=O [Example 163, (R)-3-((2R,3S)-2-(4-ethyl-2,3-dioxopiperazine-1-carboxamido)-4,4-difluoro-3-hydroxybutanamido)-7-fluoro-2-hydroxy-3,4-dihydro-2H-benzo[e][1,2]oxaborinine-8-carboxylic acid]",> 4.52
2,"CCN1CCN(C(=O)N[C@H](C(=O)N[C@H]2Cc3cccc(C(=O)O)c3OB2O)[C@H](C)OC)C(=O)C1=O [Example 147, (R)-3-((2S,3S)-2-(4-ethyl-2,3-dioxopiperazine-1-carboxamido)-3-methoxybutanamido)-2-hydroxy-3,4-dihydro-2H-benzo[e][1,2]oxaborinine-8-carboxylic acid]",< 3.30
3,"CCN1CCN(C(=O)N[C@H](C(=O)N[C@H]2Cc3ccc(F)c(C(=O)O)c3OB2O)[C@H](O)C(F)(F)F)C(=O)C1=O [Example 159, (R)-3-((2S,3S)-2-(4-ethyl-2,3-dioxopiperazine-1-carboxamido)-4,4,4-trifluoro-3-hydroxybutanamido)-7-fluoro-2-hydroxy-3,4-dihydro-2H-benzo[e][1,2]oxaborinine-8-carboxylic acid]",< 3.30
4,"CCN1CCN(C(=O)N[C@@H](C(=O)N[C@H]2Cc3cccc(C(=O)O)c3OB2O)[C@H](O)C(F)F)C(=O)C1=O [Example 173, (R)-3-((2R,3S)-2-(4-ethyl-2,3-dioxopiperazine-1-carboxamido)-4,4-difluoro-3-hydroxybutanamido)-2-hydroxy-3,4-dihydro-2H-benzo[e][1,2]oxaborinine-8-carboxylic acid]",< 3.30
5,"CCN1CCN(C(=O)N[C@H](C(=O)N[C@H]2Cc3ccc(F)c(C(=O)O)c3OB2O)[C@H](O)C(F)F)C(=O)C1=O [Example 164, (R)-3-((2S,3S)-2-(4-ethyl-2,3-dioxopiperazine-1-carboxamido)-4,4-difluoro-3-hydroxybutanamido)-7-fluoro-2-hydroxy-3,4-dihydro-2H-benzo[e][1,2]oxaborinine-8-carboxylic acid]",< 3.30
6,"CCN1CCN(C(=O)N[C@H](C(=O)N[C@H]2Cc3cccc(C(=O)O)c3OB2O)[C@H](O)C(F)F)C(=O)C1=O [Example 174, (R)-3-((2S,3S)-2-(4-ethyl-2,3-dioxopiperazine-1-carboxamido)-4,4-difluoro-3-hydroxybutanamido)-2-hydroxy-3,4-dihydro-2H-benzo[e][1,2]oxaborinine-8-carboxylic acid]",< 3.30
7,"CCN1CCN(C(=O)NC(C(=O)N[C@H]2Cc3cccc(C(=O)O)c3OB2O)c2cccc(O)c2O)C(=O)C1=O (stereo partly drawn) [Example 44, (3R)-3-(2-(2,3-dihydroxyphenyl)-2-(4-ethyl-2,3-dioxopiperazine-1-carboxamido)acetamido)-2-hydroxy-3,4-dihydro-2H-benzo[e][1,2]oxaborinine-8-carboxylic acid]",< 3.30
8,"CCCN1CCN(C(=O)N[C@@H](C(=O)N[C@H]2Cc3ccc(F)c(C(=O)O)c3OB2O)[C@@H](C)O)C(=O)C1=O [Example 133, (R)-3-((2R,3R)-2-(2,3-dioxo-4-propylpiperazine-1-carboxamido)-3-hydroxybutanamido)-7-fluoro-2-hydroxy-3,4-dihydro-2H-benzo[e][1,2]oxaborinine-8-carboxylic acid]",< 3.30

# Source: patent US12173018B2, “Penicillin-binding protein inhibitors” (priority 2018, dated 2024)
